Experimental data as given in ChEMBL document CHEMBL5441456, “ASAP - SARS-CoV-2 nsp3 macrodomain dose response” (2024).
pIC50: −log10 of the molar value. Where “and” joins values, the source holds several entries; their conditions need not be identical. Identical values can stand only once.

Each compound was assayed against Replicase polyprotein 1ab (Severe acute respiratory syndrome coronavirus 2, UniProt P0DTD1) (assay: Functional biochemical assay to identify treatments for viral infectious disease that targets SARS-COV-2 nsp3 macrodomain, whereby the mechanism of action displaces an ADP-Ribose modified peptide from the binding site. Utilizing a time-resolved fluorescence method to measure binding by reading the emitted fluorescence intensity in two wavelengths.).

| Compound | pIC50 |
| --- | --- |
| CC(C)[C@@H](Nc1ncnc2[nH]cc(C(=O)NC3CC3)c12)c1ccc2c(c1)S(=O)(=O)CCC2 | 6.59 and 6.84 and 6.82 |
| CC(C)[C@@H](Nc1ncnc2[nH]c(-c3cnn(CC(N)=O)c3)cc12)c1ccc2c(n1)OCCO2 | 6.62 and 7.17 and 6.87 |
| CC(C)[C@@H](Nc1ncnc2[nH]c(-c3cnn(CC(=O)N(C)C)c3)cc12)c1ccc2c(c1)S(=O)(=O)CCC2 | 7.41 and 7.26 and 7.52 and 7.59 and 7.35 and 7.54 and 7.48 |
| CC(C)[C@@H](Nc1ncnc2[nH]c(-c3ccoc3C#N)cc12)c1ccc2c(c1)OCCO2 | 5.57 |
| CC(C)[C@@H](Nc1ncnc2[nH]c(-c3cc(-c4ccccc4)n[nH]3)cc12)c1ccc2c(c1)OCCO2 | < 4.00 |
| Cc1nnc(CNC(=O)c2cc3c(N[C@@H](c4ccc5c(c4)OCCO5)C(C)C)ncnc3[nH]2)o1 | 5.95 |
| CCn1ncc(-c2cc3c(N[C@@H](c4ccc5c(c4)OCCO5)C(C)C)ncnc3[nH]2)n1 | 5.97 and 5.91 |
| CC(C)[C@@H](Nc1ncnc2[nH]c(-c3cnn(C4(C(N)=O)CC4)c3)cc12)c1ccc2c(c1)OCCO2 | 5.98 and 5.86 and 5.88 |
| CC(C)[C@@H](Nc1ncnc2[nH]c(-c3ccnn3C3CCC3)cc12)c1ccc2c(c1)OCCO2 | 5.25 and 5.06 |
| CC(C)[C@@H](Nc1ncnc2[nH]c([C@@H]3CCCNC3)cc12)c1ccc2c(c1)OCCO2 | 5.46 and 5.26 and 5.28 |
| CC(C)[C@@H](Nc1ncnc2[nH]ccc12)c1ccc2c(c1)N(C)C(=O)CO2 | 4.17 |
| CC(C)[C@@H](Nc1ncnc2[nH]ccc12)c1ccc2cn[nH]c2c1 | < 4.00 |
| Cc1cc(CNC(=O)c2cc3c(N[C@@H](c4ccc5c(c4)OCCO5)C(C)C)ncnc3[nH]2)[nH]n1 | 5.92 |
| CNCc1cc(-c2cc3c(N[C@@H](c4ccc5c(c4)OCCO5)C(C)C)ncnc3[nH]2)co1 | 6.55 and 6.42 |
| CC(C)[C@@H](Nc1ncnc2[nH]c(-c3ccnn3C)cc12)c1ccc2c(c1)OCCO2 | 6.16 and 6.05 and 6.08 |
| CCc1n[nH]cc1-c1cc2c(N[C@@H](c3ccc4c(c3)OCCO4)C(C)C)ncnc2[nH]1 | 5.93 and 6.02 |
| CC(C)[C@@H](Nc1ncnc2[nH]c(-c3cc[nH]c3)cc12)c1ccc2c(c1)OCCO2 | 5.27 and 5.34 |
| CC(C)[C@@H](Nc1ncnc2[nH]c(-c3cnn(-c4ccc(F)cc4)c3)cc12)c1ccc2c(c1)OCCO2 | 4.56 and 4.59 |
| COC(=O)c1coc(-c2cc3c(N[C@@H](c4ccc5c(c4)OCCO5)C(C)C)ncnc3[nH]2)c1 | 5.03 and 4.97 and 4.99 |
| CC(C)[C@@H](Nc1ncnc2[nH]c(-c3cnn(C)c3)cc12)c1ccc2c(c1)OCCO2 | 6.27 and 6.21 |
| Cc1noc2ncc(-c3cc4c(N[C@@H](c5ccc6c(c5)OCCO6)C(C)C)ncnc4[nH]3)cc12 | 5.43 and 5.52 |
| CC(C)[C@@H](Nc1ncnc2[nH]c(-c3cnn(C4CC4)c3)cc12)c1ccc2c(c1)OCCO2 | 6.00 and 5.91 and 5.95 |

| Compound | pIC50 |
| --- | --- |
| Cc1n[nH]c(-c2cc3c(N[C@@H](c4ccc5c(c4)OCCO5)C(C)C)ncnc3[nH]2)c1C | 5.29 and 5.35 |
| CC(C)[C@@H](Nc1ncnc2[nH]c(C(=O)NCCn3cncn3)cc12)c1ccc2c(c1)OCCO2 | 5.75 |
| Cc1nnn(C)c1-c1cc2c(N[C@@H](c3ccc4c(c3)OCCO4)C(C)C)ncnc2[nH]1 | 4.99 and 5.06 |
| CC(C)[C@@H](Nc1ncnc2[nH]c(-c3cccc(CN4CCCS4(=O)=O)c3)cc12)c1ccc2c(c1)OCCO2 | < 4.00 |
| Cc1occc1-c1cc2c(N[C@@H](c3ccc4c(c3)OCCO4)C(C)C)ncnc2[nH]1 | 5.07 and 5.05 and 5.02 |
| Cc1cc(-c2cc3c(N[C@@H](c4ccc5c(c4)OCCO5)C(C)C)ncnc3[nH]2)nn1C | 5.55 and 5.79 |
| CC(C)[C@@H](Nc1ccnc2[nH]ncc12)c1ccc2c(c1)S(=O)(=O)CCC2 | < 4.00 |
| CNC(=O)c1c[nH]c2ncnc(N[C@@H](c3ccc4c(c3)NC(=O)CO4)C(C)C)c12 | 6.51 |
| CC(C)[C@@H](Nc1ncnc2[nH]c(-c3cnc(C4CC4)o3)cc12)c1ccc2c(c1)OCCO2 | 5.48 and 5.43 |
| CC(C)[C@@H](Nc1ncnc2[nH]c(-c3ccco3)cc12)c1ccc2c(c1)OCCO2 | 5.21 |
| CCCn1nccc1-c1cc2c(N[C@@H](c3ccc4c(c3)OCCO4)C(C)C)ncnc2[nH]1 | 5.66 and 5.61 and 5.58 |
| CC(C)[C@@H](c1ccc2c(c1)OCCO2)N(C)c1ncnc2[nH]c(-c3cnn(CC(N)=O)c3)cc12 | 4.70 |
| Cc1ccoc1-c1cc2c(N[C@@H](c3ccc4c(c3)OCCO4)C(C)C)ncnc2[nH]1 | 4.36 and 4.40 |
| CC(C)[C@@H](Nc1ncnc2[nH]c(-c3cncc(C(=O)N(C)C)c3)cc12)c1ccc2c(c1)OCCO2 | 6.13 and 6.09 |
| CC(C)[C@@H](Nc1ncnc2[nH]c(-c3cccc(CN4CCS(=O)(=O)CC4)c3)cc12)c1ccc2c(c1)OCCO2 | 5.49 and 5.46 and 5.45 |
| CC(C)[C@@H](Nc1ncnc2[nH]ccc12)c1ccc2c(c1)NC(=O)[C@@H](C)O2 | 5.57 and 5.54 |
| Cc1cnn(C)c1NC(=O)c1cc2c(N[C@@H](c3ccc4c(c3)OCCO4)C(C)C)ncnc2[nH]1 | 4.56 and < 4.00 |
| CCn1nccc1-c1cc2c(N[C@@H](c3ccc4c(c3)OCCO4)C(C)C)ncnc2[nH]1 | 6.05 and 5.85 and 5.89 |
| CC(C)[C@@H](Nc1ncnc2[nH]c(-c3cccc(Cn4ccnc4)c3)cc12)c1ccc2c(c1)OCCO2 | < 4.00 |
| CNc1c[nH]c2ncnc(N[C@@H](c3ccc4c(c3)OCCO4)C(C)C)c12 | 4.54 |
| CC(C)[C@@H](Nc1ncnc2[nH]c(-c3cnn([C@@H](C)C(N)=O)c3)cc12)c1ccc2c(c1)OCCO2 | 6.37 and 6.30 |
| Cc1c(-c2cc3c(N[C@@H](c4ccc5c(c4)OCCO5)C(C)C)ncnc3[nH]2)cnn1C | 6.19 and 6.15 |

| Compound | pIC50 |
| --- | --- |
| CC(C)[C@@H](Nc1ncnc2[nH]c(-c3ccc(C#N)nc3)cc12)c1ccc2c(c1)OCCO2 | 5.73 and 5.67 |
| CC(C)[C@@H](Nc1ncnc2[nH]c(-c3cn(C)nc3C3CC3)cc12)c1ccc2c(c1)OCCO2 | 5.92 and 5.93 |
| COCCNC(=O)c1c[nH]c2ncnc(N[C@@H](c3ccc4c(c3)S(=O)(=O)CCC4)C(C)C)c12 | 6.49 |
| CC(C)[C@@H](Nc1ncnc2[nH]c(-c3cnc4c(c3)CC(=O)N4)cc12)c1ccc2c(c1)OCCO2 | 5.89 and 5.82 |
| Cc1n[nH]c(C)c1-c1cc2c(N[C@@H](c3ccc4c(c3)OCCO4)C(C)C)ncnc2[nH]1 | 4.50 |
| CC(C)[C@@H](Nc1cc(C(N)=O)ccn1)c1ccc2c(c1)S(=O)(=O)CCC2 | < 4.00 |
| CC(C)[C@@H](Nc1ncnc2[nH]ccc12)c1ccc2nn[nH]c2c1 | 5.46 and 5.39 |
| CC(C)[C@@H](Nc1ncnc2[nH]c(-c3cn[nH]c3)cc12)c1ccc2c(c1)OCCO2 | 6.15 and 6.13 |
| COC(=O)c1cc(-c2cc3c(N[C@@H](c4ccc5c(c4)OCCO5)C(C)C)ncnc3[nH]2)c[nH]1 | 5.30 |
| CC(C)[C@@H](Nc1ncnc2[nH]c(-c3cc4c(C#N)cccc4[nH]3)cc12)c1ccc2c(c1)OCCO2 | < 4.00 |
| CNC(=O)c1cc2c(N[C@@H](c3ccc4c(c3)NC(=O)CO4)C(C)C)ncnc2[nH]1 | 6.79 and 6.84 and 6.81 |
| Cc1ncc(-c2cc3c(N[C@@H](c4ccc5c(c4)OCCO5)C(C)C)ncnc3[nH]2)n1C | 6.17 and 6.15 |
| CC(C)[C@@H](Nc1ncnc2[nH]ccc12)c1ccc2c(n1)NC(=O)CO2 | 5.58 and 5.57 |
| Cc1ncc(-c2cc3c(N[C@@H](c4ccc5c(c4)OCCO5)C(C)C)ncnc3[nH]2)o1 | 5.94 and 5.87 and 5.85 |
| CC(C)[C@@H](Nc1ncnc2[nH]c(-c3cnn(C4CCC4)c3)cc12)c1ccc2c(c1)OCCO2 | 5.93 and 5.82 and 5.85 |
| Cc1ccc(-c2cc3c(N[C@@H](c4ccc5c(c4)OCCO5)C(C)C)ncnc3[nH]2)o1 | 4.39 and 4.43 |
| Cc1cn[nH]c1-c1cc2c(N[C@@H](c3ccc4c(c3)OCCO4)C(C)C)ncnc2[nH]1 | 5.17 and 5.05 and 5.06 |
| CC(C)[C@@H](Nc1ncnc2[nH]c(C3=CCCN(C(=O)OCc4ccccc4)C3)cc12)c1ccc2c(c1)OCCO2 | < 4.00 |
| CC(C)[C@@H](Nc1ncnc2[nH]c(-c3ccc(S(N)(=O)=O)cc3)cc12)c1ccc2c(c1)OCCO2 | 5.79 and 5.74 |
| CNc1cc(N[C@@H](c2ccc3c(c2)S(=O)(=O)CCC3)C(C)C)ncn1 | 5.22 |
| COCCn1cc(-c2cc3c(N[C@@H](c4ccc5c(c4)OCCO5)C(C)C)ncnc3[nH]2)c(C#N)n1 | 6.17 and 6.06 |
| Cc1ccc([C@@H](Nc2ncnc3[nH]ccc23)C(C)C)cc1S(C)(=O)=O | 5.14 and 4.95 |

| Compound | pIC50 |
| --- | --- |
| CNC(=O)c1cccc(-c2cc3c(N[C@@H](c4ccc5c(c4)OCCO5)C(C)C)ncnc3[nH]2)c1 | 6.38 and 6.32 and 6.42 |
| CC(C)[C@@H](Nc1ncnc2[nH]c(-c3ccc(CC#N)cc3)cc12)c1ccc2c(c1)OCCO2 | 4.58 and 4.54 |
| CC(C)[C@@H](Nc1ncnc2[nH]c(-c3cnn(C(C)C)c3)cc12)c1ccc2c(c1)OCCO2 | 6.12 and 6.02 and 6.06 |
| Cc1cn(C)nc1-c1cc2c(N[C@@H](c3ccc4c(c3)OCCO4)C(C)C)ncnc2[nH]1 | < 4.00 |
| Cc1cc(-c2cc3c(N[C@@H](c4ccc5c(c4)OCCO5)C(C)C)ncnc3[nH]2)co1 | 5.06 and 4.87 and 4.77 |
| CC(C)[C@@H](Nc1ncnc2[nH]c(-c3ccc4nccn4c3)cc12)c1ccc2c(c1)OCCO2 | 5.94 and 5.86 |
| CC(C)[C@@H](Nc1ncnc2[nH]c(-c3cnn(CC(N)=O)c3)cc12)c1ccc2c(n1)NC(=O)CO2 | 6.60 and 6.52 and 6.45 |
| CC(C)[C@@H](Nc1ncnc2[nH]c(-c3ccc4[nH]ncc4c3)cc12)c1ccc2c(c1)OCCO2 | 4.69 and 4.71 |
| COc1nn(C)cc1-c1cc2c(N[C@@H](c3ccc4c(c3)OCCO4)C(C)C)ncnc2[nH]1 | 5.75 and 5.72 |
| CC(C)[C@@H](c1ccc2c(c1)OCCO2)N(C)c1ncnc2[nH]c(Br)cc12 | < 4.00 |
| CC(C)[C@@H](Nc1ncnc2[nH]c(C(=O)NCCC3CN(C)C3)cc12)c1ccc2c(c1)OCCO2 | 6.05 |
| Cc1nn(C)cc1-c1cc2c(N[C@@H](c3ccc4c(c3)OCCO4)C(C)C)ncnc2[nH]1 | 6.39 and 6.31 and 6.33 |
| CC(C)[C@@H](Nc1ncnc2[nH]c(C(=O)O)cc12)c1ccc2c(c1)OCCO2 | 4.93 and 4.94 |
| CC(C)[C@@H](Nc1ncnc2[nH]c(C(=O)NC3COC3)cc12)c1ccc2c(c1)OCCO2 | 6.13 and 5.81 |
| Cc1cc(-c2cc3c(N[C@@H](c4ccc5c(c4)OCCO5)C(C)C)ncnc3[nH]2)c[nH]1 | 5.02 and 4.99 |
| CC(C)[C@@H](Nc1ncnc2[nH]c(C(=O)Nc3cn[nH]c3)cc12)c1ccc2c(c1)OCCO2 | 5.59 |
| CC(C)[C@@H](Nc1ncnc2[nH]c(-c3cnn(CC4(C#N)CC4)c3)cc12)c1ccc2c(c1)OCCO2 | 6.38 and 6.35 |
| CC(C)[C@@H](Nc1ncnc2[nH]c(-c3ccnn3C(C)C)cc12)c1ccc2c(c1)OCCO2 | 5.52 and 5.53 |
| Cc1nn(CC(N)=O)cc1-c1cc2c(N[C@@H](c3ccc4c(c3)OCCO4)C(C)C)ncnc2[nH]1 | 6.48 and 6.47 |
| CC(C)[C@@H](Nc1ncnc2[nH]c(-c3cnn(C(C)C)n3)cc12)c1ccc2c(c1)OCCO2 | 5.77 and 5.67 |
